PMC6792352, “Limited Chemical Structural Diversity Found to Modulate Thyroid Hormone Receptor in the Tox21 Chemical Library” (Environmental Health Perspectives, 2019)
Where a name gives a salt, the structure may show the parent alone.

Assay: in vitro
Conditions: rat, gh3-tre-luc cells

| SMILES | CC50 at 24 h (AC50 (uM) modified / 1000) | other results |
| --- | --- | --- |
| Cc1ncc([C@@H](CCCCCCc2ccc3c(n2)NCCC3)CC(=O)O)cn1 [PharmaGSID_47333] | > 90 µM | – |
| C[C@]12O[C@H](C[C@]1(O)CO)n1c3ccccc3c3c4c(c5c6ccccc6n2c5c31)CNC4=O [Lestaurtinib] | 0.226 µM | – |
| Cc1cc([N+](=O)[O-])ccc1N [2-Methyl-4-nitroaniline] | > 90 µM | – |
| CCC(=O)c1ccc2c(c1)N(CCCN1CCN(CCO)CC1)c1ccccc1S2 [Carphenazine dimaleate] | 6.82 µM | – |
| CC(C)Oc1ccc2c(=O)c(-c3ccccc3)coc2c1 [Ipriflavone] | > 50 µM | – |
| O=C(Nc1ccc([N+](=O)[O-])cc1)Nc1ccc([N+](=O)[O-])cc1 [4,4'-Dinitrodiphenylurea] | > 50 µM | – |
| CC(=O)OC(C)OC(=O)C(C)c1ccc(-c2ccccc2)c(F)c1 (stereo not shown) [Flurbiprofen axetil] | > 50 µM | – |
| O=S(=O)(O)CCN1CCN(CCO)CC1 [Sodium 2-[4-(2-hydroxyethyl)piperazin-1-yl]ethanesulfonate] | > 90 µM | – |
| CO[Si](C)(OC)OC [Trimethoxymethylsilane] | > 90 µM | – |
| Cc1cc(=O)[nH]c(=S)[nH]1 [6-Methyl-2-thiouracil] | > 90 µM | – |
| CCCCC/C=C\C/C=C\CCCCCCCC(=O)NC(C)c1ccccc1 (stereo not shown) [Melinamide] | > 50 µM | – |
| COc1cc2c(cc1OC)[C@@]13CCN4CC5=CCO[C@H]6CC(=O)N2[C@H]1[C@H]6[C@H]5C[C@H]43 [Brucine] | – | CC50 at 24 h (AC50 (uM) modified / 1000, Tox21_110001=Tox21_111349, viability, 1 nM T3 present, 24 h): > 50 µM; CC50 at 24 h (AC50 (uM) modified / 1000, Tox21_110001=Tox21_302174, viability, 1 nM T3 present, 24 h): > 90 µM |
| CCOC(=O)NCCC[Si](OCC)(OCC)OCC [Ethyl [3-(triethoxysilyl)propyl]carbamate] | > 90 µM | – |
| C/C=C1\C(=O)C[C@H]2[C@@H]3CCC4=CC(=O)CC[C@]4(C)[C@H]3CC[C@]12C [Guggulsterone Z] | > 50 µM | – |
| CNS(=O)(=O)CCc1ccc2[nH]cc(C3CCN(C)CC3)c2c1 [Naratriptan hydrochloride] | > 50 µM | – |
| COc1cc2c(cc1OC)C(C(C(=O)N(CCc1ccc(OC)c(OC)c1OC)CCc1ccc(OC)c(OC)c1OC)c1ccccc1)=NCC2 (stereo not shown) [Pinokalant hydrochloride] | 21.9 µM | – |
| CC(=O)OC(C)(C)C [tert-Butyl acetate] | > 90 µM | – |
| CC(=O)OCc1ccc2c(c1)OCO2 [Piperonyl acetate] | > 90 µM | – |
| CCN(CC)CCOCCOC(=O)C1(c2ccccc2)CCCC1 [Carbetapentane] | > 50 µM | – |
| O=C(O)[C@@H](S)[C@H](S)C(=O)O [(2R,3R)-2,3-Dimercaptosuccinic acid] | 22.8 µM | – |
| NC(=S)N/N=C/c1cccnc1 [Nicothiazone] | > 50 µM | – |

| SMILES | CC50 at 24 h (AC50 (uM) modified / 1000) | other results |
| --- | --- | --- |
| Cl/C=C/CCl [1,3-Dichloropropene] | – | CC50 at 24 h (AC50 (uM) modified / 1000, Tox21_110001=Tox21_200235, viability, 1 nM T3 present, 24 h): > 90 µM |
| CC1=C(/C=C/C(C)=C/C=C/C(C)=C/C=C/C=C(C)/C=C/C=C(C)/C=C/C2=C(C)C[C@@H](O)CC2(C)C)C(C)(C)C[C@H](O)C1 [Zeaxanthin] | 28.9 µM | – |
| CCCC(C)CO (stereo not shown) [2-Methyl-1-pentanol] | > 90 µM | – |
| C=C1[C@H]2CC[C@@H]3[C@H]2C(C)(C)CCC[C@]13C [Longifolene] | > 90 µM | – |
| O=C(O)C(O)[C@H](O)[C@@H](O)[C@H](O)[C@H](O)CO (stereo partly drawn) [D-Gluco-heptonic acid, monosodium salt] | > 90 µM | – |
| CC(CNC(=O)c1cccnc1)NC(=O)c1cccnc1 (stereo not shown) [Nicaraven] | > 50 µM | – |
| O=C(O)CO [Glycolic acid] | > 90 µM | – |
| NNC(=O)c1ccccc1 [Benzoyl hydrazine] | > 90 µM | – |
| CC(=O)C=Cc1ccco1 [Furfural acetone] | > 100 µM | – |
| CCC1(c2ccccc2)C(=O)NCNC1=O [Primidone] | > 90 µM | – |
| CCCCCBr [1-Bromopentane] | > 100 µM | – |
| CC(=O)c1ccc2c(c1)[C@H](NC(=O)c1ccc(F)cc1)[C@@H](O)C(C)(C)O2 [Carabersat] | 51.8 µM | – |
| O=C(OCCc1ccccc1)c1ccccc1 [2-Phenylethyl benzoate] | > 90 µM | – |
| N=C(N)/N=C(\N)N1CCOCC1 [Moroxidine hydrochloride] | > 20 µM | – |
| Cc1c(O)c(=O)ccn1C [Deferiprone] | > 50 µM | – |
| CC/C=C/C#N [2-Pentenenitrile] | > 90 µM | – |
| CCC(C)N (stereo not shown) [2-Butanamine] | > 90 µM | – |
| CN1CCC(OC(c2ccccc2)c2ccccc2)CC1 [Diphenylpyraline hydrochloride] | > 20 µM | – |
| COc1ccccc1OCC(O)COC(N)=O (stereo not shown) [Methocarbamol] | > 20 µM | – |
| O=c1n(CCO)c(=O)n(CCO)c(=O)n1CCO [Tris(2-hydroxyethyl) isocyanurate] | > 90 µM | – |
| Cc1ccc([N+](=O)[O-])cc1N [2-Methyl-5-nitroaniline] | > 90 µM | – |
